Data: ChEMBL document CHEMBL1136597, “A structure-permeability study of small drug-like molecules” (Bioorg Med Chem Lett, 2003)

experiment: Permeability directional ratio (PB-A/PA-B) in Caco-2 cell; type: ADME, cell-based; conditions: human, read-out: PDR

**Q.** With `O=C(O)c1ccc(Cn2ccnc2)cc1` as the molecule, how does the efflux ratio read?
**A.** 1

**Q.** For `O=S(=O)(O)c1ccc(Cn2cnc3ccccc32)cc1`, which efflux ratio is on record?
**A.** 7

**Q.** With `O=C(O)c1cccc(Cn2cnc3ccccc32)c1` as the molecule, how does the efflux ratio read?
**A.** 3

**Q.** Which efflux ratio does the source give for `c1ccc2c(c1)ncn2Cc1ccc(-c2nn[nH]n2)cc1` here?
**A.** 129

**Q.** Which efflux ratio does the source give for `c1cnc(Cc2cccc(-c3nn[nH]n3)c2)nc1` here?
**A.** 20

**Q.** For `c1ccc(-c2nn[nH]n2)c(Cn2cnc3ccccc32)c1`, which efflux ratio is on record?
**A.** 180

**Q.** Which efflux ratio does the source give for `N=C(N)c1cccc(Cc2ncccn2)c1` here?
**A.** 3

**Q.** With `c1cc(Cn2cnc3ccccc32)cc(-c2nn[nH]n2)c1` as the molecule, how does the efflux ratio read?
**A.** 145

experiment: Partition coefficient (logD7.4) measured using octanol and PBS at pH7.4; type: physicochemical; conditions: pH 7.4, read-out: LogD7.4

**Q.** Which logD does the source give for `NS(=O)(=O)c1ccc(Cn2cnc3ccccc32)cc1` here?
**A.** 1.04

**Q.** For `NCc1cccc(Cn2cccn2)c1`, which logD is on record?
**A.** -0.77

**Q.** For `NC(=O)c1cccc(Cc2ncccn2)c1`, which logD is on record?
**A.** 0.28

**Q.** With `O=C(O)c1ccc(Cn2cccn2)cc1` as the molecule, how does the logD read?
**A.** -1.65

**Q.** Which logD does the source give for `N#Cc1cccc(Cn2cccn2)c1` here?
**A.** 1.74

**Q.** With `N#Cc1cccc(Cc2ncccn2)c1` as the molecule, how does the logD read?
**A.** 1.46

**Q.** With `NC(=O)c1cccc(Cn2cccn2)c1` as the molecule, how does the logD read?
**A.** 0.71

**Q.** With `O=C(O)c1ccc(Cc2ncccn2)cc1` as the molecule, how does the logD read?
**A.** -2.2

**Q.** With `NCc1cccc(Cn2cnc3ccccc32)c1` as the molecule, how does the logD read?
**A.** 0.21

**Q.** Which logD does the source give for `NC(=O)c1cccc(Cn2ccnc2)c1` here?
**A.** -0.01

**Q.** With `N#Cc1cccc(Cn2ccnc2)c1` as the molecule, how does the logD read?
**A.** 1.01

**Q.** Which logD does the source give for `N#Cc1cccc(Cn2cnc3ccccc32)c1` here?
**A.** 2.47

**Q.** With `O=C(O)c1cccc(Cn2cccn2)c1` as the molecule, how does the logD read?
**A.** -1.62

**Q.** With `O=C(O)Cc1ccc(Cn2ccnc2)cc1` as the molecule, how does the logD read?
**A.** -2.37

**Q.** With `c1ccc(Cn2cnc3ccccc32)cc1` as the molecule, how does the logD read?
**A.** 2.91

**Q.** For `c1cnc(Cc2cccc(-c3nn[nH]n3)c2)nc1`, which logD is on record?
**A.** -1.28

**Q.** Which logD does the source give for `O=C(O)Cc1ccc(Cn2cccn2)cc1` here?
**A.** -1.8

**Q.** With `O=C(O)c1cccc(Cc2ncccn2)c1` as the molecule, how does the logD read?
**A.** -1.98

**Q.** With `NCc1cccc(Cc2ncccn2)c1` as the molecule, how does the logD read?
**A.** -1.11

**Q.** Which logD does the source give for `NC(=O)c1cccc(Cn2cnc3ccccc32)c1` here?
**A.** 1.7

**Q.** With `O=C(O)Cc1ccc(Cn2cnc3ccccc32)cc1` as the molecule, how does the logD read?
**A.** -1.13

**Q.** Which logD does the source give for `c1cc(Cn2cnc3ccccc32)cc(-c2nn[nH]n2)c1` here?
**A.** 0.27

**Q.** With `O=C(O)c1ccc(Cn2cnc3ccccc32)cc1` as the molecule, how does the logD read?
**A.** -0.61

**Q.** With `c1ccc(Cn2ccnc2)cc1` [BENZYLIMIDAZOLE] as the molecule, how does the logD read?
**A.** 1.78

experiment: Distribution coefficient of octanol and phosphate buffered saline at pH 7.4; type: physicochemical; conditions: read-out: Log Doct/PBS

**Q.** For `O=C(O)c1ccc(Cn2ccnc2)cc1`, which logD is on record?
**A.** -2.1

**Q.** With `O=S(=O)(O)c1ccc(Cn2cnc3ccccc32)cc1` as the molecule, how does the logD read?
**A.** 1.78

**Q.** With `O=C(O)c1cccc(Cn2cnc3ccccc32)c1` as the molecule, how does the logD read?
**A.** -0.72

**Q.** Which logD does the source give for `Nc1cccc(Cn2cnc3ccccc32)c1` here?
**A.** 1.92

**Q.** With `CS(=O)(=O)Nc1cccc(Cn2cnc3ccccc32)c1` as the molecule, how does the logD read?
**A.** 2.08

**Q.** With `N=C(N)c1cccc(Cc2ncccn2)c1` as the molecule, how does the logD read?
**A.** -1.03
